Results reported in PubChem BioAssay (NCI).
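Tested at 5 concentrations; 48 h exposure; 96-well plates; endpoints linearly interpolated, else capped at highest concentration. TGI: total growth inhibition.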

Experiments:
Test in all cases: growth of human tumour cells (NCI), 48 h
[1] = tested on: OVCAR-3 ovarian
[2] = tested on: OVCAR-8 ovarian
[3] = tested on: CCRF-CEM leukemia
[4] = tested on: CAKI-1 renal
[5] = tested on: MDA-N
[6] = tested on: PC-3 prostate
[7] = tested on: SK-OV-3 ovarian
[8] = tested on: LOX IMVI melanoma
[9] = tested on: COLO 205 colon
[10] = tested on: ACHN renal
[11] = tested on: SN12C renal
[12] = tested on: HCT-15 colon
[13] = tested on: MALME-3M melanoma
[14] = tested on: SK-MEL-2 melanoma
[15] = tested on: 786-0 renal
[16] = tested on: HOP-92 NSCLC
[17] = tested on: EKVX NSCLC
[18] = tested on: M14 melanoma
[19] = tested on: NCI-H23 lung
[20] = tested on: HCC-2998 colon
[21] = tested on: RXF 393 renal
[22] = tested on: NCI-H460 lung
[23] = tested on: HOP-62 NSCLC
[24] = tested on: NCI/ADR-RES ovarian
[25] = tested on: T-47D breast
[26] = tested on: MDA-MB-435
[27] = tested on: SK-MEL-28 melanoma
[28] = tested on: HT29 colon
[29] = tested on: OVCAR-5 ovarian
[30] = tested on: HCT-116 colon
[31] = tested on: NCI-H226 lung
[32] = tested on: TK-10 renal
[33] = tested on: HS 578T breast
[34] = tested on: SW-620 colon
[35] = tested on: UACC-62 melanoma
[36] = tested on: A549 NSCLC
[37] = tested on: NCI-H522 lung
[38] = tested on: SNB-19 CNS
[39] = tested on: SK-MEL-5 melanoma
[40] = tested on: KM12 colon
[41] = tested on: MDA-MB-231 breast
[42] = tested on: K-562 leukemia
[43] = tested on: UO-31 renal
[44] = tested on: MOLT-4 leukemia
[45] = tested on: MCF7 breast
[46] = tested on: A498 renal
[47] = tested on: HL-60(TB) leukemia
[48] = tested on: OVCAR-4 ovarian
[49] = tested on: SF-295 CNS
[50] = tested on: U251 CNS
[51] = tested on: UACC-257 melanoma
[52] = tested on: RPMI-8226 leukemia
[53] = tested on: SNB-75 CNS
[54] = tested on: BT-549 breast
[55] = tested on: SR leukemia
[56] = tested on: SF-268 CNS
[57] = tested on: SF-539 CNS
[58] = tested on: DU-145 prostate
[59] = tested on: IGROV1 ovarian

Compound: CCN(CC)CCN1CCN=c2c3cc(OC)ccc3n3cnc4ccc1c2c43
- TGI [1]: 3.26 µM
- TGI [2]: 2.26 µM
- TGI [3]: 1.71 µM
- TGI [4]: 2.23 µM
- TGI [5]: 1.79 µM
- TGI [6]: 1.63 µM
- TGI [7]: 5.16 µM
- TGI [8]: 1.07 µM
- TGI [9]: 2.6 µM
- TGI [10]: 3.61 µM
- TGI [11]: 3.38 µM
- TGI [12]: 1.9 µM
- TGI [13]: 2.74 µM
- TGI [14]: 2.18 µM
- TGI [15]: 1.72 µM
- TGI [16]: 4.42 µM
- TGI [17]: 3.21 µM
- TGI [18]: 2.85 µM
- TGI [19]: 4.61 µM
- TGI [20]: 2.13 µM
- TGI [21]: 1.52 µM
- TGI [22]: 0.724 µM
- TGI [23]: 3.46 µM
- TGI [24]: 2.39 µM
- TGI [25]: 23.3 µM
- TGI [26]: 1.92 µM
- TGI [27]: 3.51 µM
- TGI [28]: 1.81 µM
- TGI [29]: 5.77 µM
- TGI [30]: 2.84 µM
- TGI [31]: 5.3 µM
- TGI [32]: 4.93 µM
- TGI [33]: 4.71 µM
- TGI [34]: 1.82 µM
- TGI [35]: 7.3 µM
- TGI [36]: 2.78 µM
- TGI [37]: 3.86 µM
- TGI [38]: 3.04 µM
- TGI [39]: 3.27 µM
- TGI [40]: 2.45 µM
- TGI [41]: 2.33 µM
- TGI [42]: 2.68 µM
- TGI [43]: 4.42 µM
- TGI [44]: 0.999 µM
- TGI [45]: 0.847 µM
- TGI [46]: 1.82 µM
- TGI [47]: 1.2 µM
- TGI [48]: 1.26 µM
- TGI [49]: 2.32 µM
- TGI [50]: 2.74 µM
- TGI [51]: 3.74 µM
- TGI [52]: 1.3 µM
- TGI [53]: 2.27 µM
- TGI [54]: 3.26 µM
- TGI [55]: 1.64 µM
- TGI [56]: 2.54 µM
- TGI [57]: 0.969 µM
- TGI [58]: 4.39 µM
- TGI [59]: 2.45 µM

Compound: COc1c(C(=O)O)cccc1-c1cccc(C(=O)NCCN(CCNC(=O)c2cccc(-c3cccc(C(=O)O)c3OC)c2OC)CCNC(=O)c2cccc(-c3cccc(C(=O)O)c3OC)c2OC)c1OC
- TGI [1]: 64.6 µM
- TGI [2]: > 100 µM
- TGI [3]: > 100 µM
- TGI [4]: > 100 µM
- TGI [5]: 23.8 µM
- TGI [6]: > 100 µM
- TGI [7]: > 100 µM
- TGI [8]: > 100 µM
- TGI [9]: 62.9 µM
- TGI [10]: > 100 µM
- TGI [11]: 89.9 µM
- TGI [12]: > 100 µM
- TGI [13]: 88.1 µM
- TGI [14]: > 100 µM
- TGI [15]: > 100 µM
- TGI [16]: > 100 µM
- TGI [17]: > 100 µM
- TGI [19]: > 100 µM
- TGI [20]: 79 µM
- TGI [21]: > 100 µM
- TGI [22]: > 100 µM
- TGI [23]: > 100 µM
- TGI [24]: > 100 µM
- TGI [25]: > 100 µM
- TGI [26]: 34.3 µM
- TGI [27]: > 100 µM
- TGI [28]: > 100 µM
- TGI [29]: > 100 µM
- TGI [30]: > 100 µM
- TGI [31]: > 100 µM
- TGI [32]: > 100 µM
- TGI [33]: 81.1 µM
- TGI [34]: > 100 µM
- TGI [35]: 89.7 µM
- TGI [36]: > 100 µM
- TGI [37]: 75.8 µM
- TGI [38]: > 100 µM
- TGI [39]: 37.6 µM
- TGI [40]: > 100 µM
- TGI [41]: > 100 µM
- TGI [42]: > 100 µM
- TGI [43]: > 100 µM
- TGI [44]: > 100 µM
- TGI [45]: > 100 µM
- TGI [46]: 96.2 µM
- TGI [47]: 65.4 µM
- TGI [48]: > 100 µM
- TGI [49]: > 100 µM
- TGI [50]: > 100 µM
- TGI [51]: > 100 µM
- TGI [52]: 65.2 µM
- TGI [53]: > 100 µM
- TGI [54]: > 100 µM
- TGI [55]: 44.1 µM
- TGI [56]: > 100 µM
- TGI [57]: > 100 µM
- TGI [58]: > 100 µM
- TGI [59]: > 100 µM
